Source: patent publication USRE39104E1, “Process for the production of dry pharmaceutical forms and the thus obtained pharmaceutical compositions” (Laboratoires Effik, priority 1994, dated 2006)

Assay: Solubility in water
Assay type: physicochemical
Description: The dosage of the amount of Medroxy progesterone acetate thus dissolved in water was determined by spectrophotometry at 241 nm.

## CC(=O)O[C@]1(C(C)=O)CC[C@H]2[C@@H]3C[C@H](C)C4=CC(=O)CC[C@]4(C)[C@H]3CC[C@@]21C [Medroxy progesterone acetate]
  solubility in water: very low
